From patent publication EP0428000A1, “Fluorogenic substrates for the detection of proteolytic enzyme activity” (priority 1989, dated 1991)
≈ marks a conversion by molar mass, not a printed value. Read-outs that look alike come from different tables or passages of the source. Numbered stars: 1 amine (or outer) side, 2 acyl side, 3 side chain; on linkers, the order of the positions; unused ones are H or OH. Square brackets hold non-standard residues; d marks the D form. Peptide text beside a SMILES is read from it. * marks the point of attachment. X3 = Nc1c(S(=O)(=O)O)cc2c3c(cc(S(=O)(=O)O)cc13)C(=O)N(CCCCCN*)C2=O; Dabcyl = CN(C)c1ccc(N=Nc2ccc(C(=O)*)cc2)cc1; X2 = CN(C)c1ccc(N=Nc2ccc(S(=O)(=O)*)cc2)cc1; X1 = CN(C)c1ccc(/N=N/c2ccc(C(=O)*)cc2)cc1; EDANS = O=S(=O)(O)c1cccc2c(NCCN*)cccc12; Sta = CC(C)C[C@H](N)[C@@H](O)CC(=O)O; NMeGABA = CN(CCCC(=O)[*:2])[*:1]; Isovaleryl = CC(C)CC(=O)*; GABA = NCCCC(=O)O

Assays:
[1] = pH 4.7, aqueous buffer
[2] = assay buffer used
AMV protease [3] = format: biochemical, avian myeloblastosis virus (AMV)
Method: (§1) Rate measurements of the change of the fluorescence intensity over time were also performed for reaction mixtures containing a protease enzyme and a fluorogenic substrate of the present invention.

physchem = conditions: NaOAc buffer, pH 4.7, aqueous buffer
HIV protease [4] = target: T1, HIV protease (Human immunodeficiency virus type 1 group M subtype B, UniProt P04585); assay: HIV protease activity towards fluorogenic substrates; format: biochemical, human immunodeficiency virus-1 (HIV-1); design: The 11 kd protease enzyme, which is encoded by the human immunodeficiency virus-1 (HIV-1)
Method: as §1

HIV protease [5] = target: T1, HIV protease; assay: Fluorescence enhancement of substrate on hydrolysis by HIV protease; format: biochemical, human immunodeficiency virus-1 (HIV-1); design: The 11 kd protease enzyme, which is encoded by the human immunodeficiency virus-1 (HIV-1)
Method: Analytical HPLC and the isolation of substrate fragments were performed in accordance with methods well known in the art on a Hewlett Packard 1090M system equipped with diode array absorbance and fluorescence detectors, using either a Brownlee 250 x 4.6 mm C8 silica column at pH values below 5, or a Hamilton 50 x 4.1 mm PRP3 polymer column over a pH range of 2-8. A water to acetonitrile gradient was used; either 0.1% trifluoroacetic acid (pH of about 2), 10 mM sodium acetate (pH 4.9), or 10 mM Tris-HCl (pH 8) was included to vary the pH.
The detection system permitted the simultaneous acquisition of the chromatograms for fluorescence and several absorbance wavelengths, as well as the absorption spectra for all peaks. The fluorescence (excitation at 340 nm, emission at 490 nm) and 475 nm absorbance signals, which arise respectively from the EDANS and DABCYL groups, were used to monitor and quantitate the fragments produced by proteolysis of the substrate.
The molar fluorescence enhancement of Substrate I was also estimated by HPLC analysis of HIV protease/Substrate reaction mixtures at times before the hydrolysis reaction was complete. […]

AMV protease [6] = target: AMV protease (Avian myeloblastosis virus, UniProt P26315); assay: Fluorogenic assay for inhibition of AMV protease (Substrate II); format: biochemical
Sequence of AMV protease (Avian myeloblastosis virus, UniProt P26315) (P26315 whole entry): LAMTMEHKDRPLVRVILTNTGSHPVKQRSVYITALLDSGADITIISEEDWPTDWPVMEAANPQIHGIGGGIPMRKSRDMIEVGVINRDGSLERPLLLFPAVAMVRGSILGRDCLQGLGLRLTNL
Method: as §1

HIV protease [7] = target: T1, HIV protease; assay: Fluorogenic assay for inhibition of HIV protease (Substrate I); conditions: Cornish-Bowden plot, parallel lines; pH 4.7, 30°C
Method: Typically, the assay reaction is performed using buffered solutions, and the reaction is allowed to proceed to virtual completion. The hydrolysis of the fluorogenic substrate by the protease enzyme is monitored by steady state fluorescence using a spectrofluorometer. Fluorescence intensity measurements can be acquired continuously and recorded directly by an interfaced microcomputer. The rate of fluorescent substrate hydrolysis can then be computed from a linear regression analysis. In this assay, the rate of hydrolysis of the fluorogenic substrate is directly proportional to the concentration of the protease. By omitting the protease inhibitor compound from the reaction mixture, the rate of change in fluorescent intensity due to the enzyme's activity can be determined. […]
The assay reaction was carried out in a fluorescence microcell (3 mm), for which a total sample volume of 120 microliters is adequate in most fluorometers. […] Prewarmed substrate solution (20 µL at 30°C) was then added to the microcell, and the fluorescence intensity of the reaction mixture was recorded as a function of time. […] The rate of change of the fluorescence intensity over the subsequent five to eight minutes was determined by linear regression. […] Therefore, the per cent inhibition was calculated as 100 x (1 - (rate in presence of inhibitor)/(rate in absence of inhibitor)).

CC[C@H](C)[C@H](NC(=O)[C@@H]1CCCN1C(=O)[C@H](Cc1ccc(O)cc1)NC(=O)[C@H](CC(N)=O)NC(=O)[C@H](CCC(N)=O)NC(=O)[C@H](CO)NC(=O)CCCNC(=O)c1ccc(N=Nc2ccc(N(C)C)cc2)cc1)C(=O)N[C@H](C(=O)N[C@@H](CCC(N)=O)C(=O)NCCCCCN1C(=O)c2cc(S(=O)(=O)O)cc3c(N)c(S(=O)(=O)O)cc(c23)C1=O)C(C)C ({Dabcyl-GABA}-SQNYPIVQ-X3)
solubility [1]: ≥ 350 µM

CC[C@H](C)[C@H](NC(=O)[C@H](CCC(N)=O)NC(=O)[C@@H]1CCCN1C(=O)[C@H](Cc1ccccc1)NC(=O)[C@H](CC(N)=O)NC(=O)[C@H](Cc1ccccc1)NC(=O)[C@H](CO)NC(=O)[C@@H](NC(=O)CCCN(C)S(=O)(=O)c1ccc(N=Nc2ccc(N(C)C)cc2)cc1)C(C)C)C(=O)N[C@H](C(=O)N[C@@H](CC(C)C)C(=O)NCCNc1cccc2c(S(=O)(=O)O)cccc12)[C@@H](C)O [Substrate III] (X2-[NMeGABA]VSFNFPQITL-{EDANS})
solubility (in words) [2]: poor solubility

CC(C)[C@H](NC(=O)[C@H](CO)NC(=O)CCCNC(=O)c1ccc(/N=N/c2ccc(N(C)C)cc2)cc1)C(=O)N[C@H](C(=O)N[C@@H](Cc1ccc(O)cc1)C(=O)N1CCC[C@H]1C(=O)N[C@H](C(=O)N[C@H](C(=O)N[C@@H](CCC(N)=O)C(=O)NCCNc1cccc2c(S(=O)(=O)O)cccc12)C(C)C)C(C)C)C(C)C [Substrate II] ({X1-GABA}-SVVYPVVQ-{EDANS})
AMV protease activity against Substrate II relative to Substrate I (AMV protease [3]): at least 50 fold
cleavage by AMV protease (in words) (AMV protease [3]): efficient substrate

CC[C@H](C)[C@H](NC(=O)[C@H](CCSC)NC(=O)[C@H](Cc1ccc(O)cc1)NC(=O)[C@H](CC(N)=O)NC(=O)[C@H](CCC(N)=O)NC(=O)[C@H](CO)NC(=O)CCCN(C)S(=O)(=O)c1ccc(N=Nc2ccc(N(C)C)cc2)cc1)C(=O)N[C@H](C(=O)N[C@@H](CCC(N)=O)C(=O)NCCNc1cccc2c(S(=O)(=O)O)cccc12)C(C)C [Substrate IV] (X2-[NMeGABA]SQNYMIVQ-{EDANS})
solubility (in words) [2]: poor solubility

CC[C@H](C)[C@H](NC(=O)[C@@H]1CCCN1C(=O)[C@H](Cc1ccc(O)cc1)NC(=O)[C@H](CC(N)=O)NC(=O)[C@H](CCC(N)=O)NC(=O)[C@H](CO)NC(=O)CCCNC(=O)c1ccc(/N=N/c2ccc(N(C)C)cc2)cc1)C(=O)N[C@H](C(=O)N[C@@H](CCC(N)=O)C(=O)NCCNc1cccc2c(S(=O)(=O)O)cccc12)C(C)C [Substrate I] ({X1-GABA}-SQNYPIVQ-{EDANS})
cleavage by AMV protease (in words) (AMV protease [3]): not by AMV protease
solubility (physchem): ~150 µM (≈ 230 µg/mL)
cleavage by HIV protease (in words) (HIV protease [4]): cleaved quite efficiently
maximum velocity for the enzymatic reaction (Vmax) (HIV protease [4]; HIV protease): 47 nM/min
Km (HIV protease [4]; HIV protease; read-out: Michaelis-Menten kinetics constant (Km)): 103 µM
rate of cleavage by HIV protease, Substrate I relative to Substrate II (HIV protease [4]; each substrate 3.4 µM): ten times faster
enhancement of the fluorescence quantum yield of the Pro-Ile-Val-Gln-EDANS fragment over the parent substrate (HIV protease [5]; HPLC analysis, pH 4.9, acetonitrile-water): 33 fold
fluorescence enhancement on cleavage (HIV protease [5]; under assay conditions): 40 fold

CC[C@H](C)[C@H](NC(=O)[C@@H](NC(=O)[C@H](C)NC(=O)[C@@H](NC(=O)CCCNC(=O)c1ccc(/N=N/c2ccc(N(C)C)cc2)cc1)[C@@H](C)O)[C@@H](C)O)C(=O)N[C@@H](CCSC)C(=O)N[C@@H](CCSC)C(=O)N[C@@H](CCC(N)=O)C(=O)N[C@@H](CCCNC(=N)N)C(=O)NCC(=O)N[C@@H](CCC(=O)O)C(=O)NCCNc1cccc2c(S(=O)(=O)O)cccc12 [Substrate VII] ({X1-GABA}-TATIMMQRGE-{EDANS})
cleavage by HIV protease (in words) (HIV protease [4]): more efficient substrate
maximum velocity for the enzymatic reaction (Vmax) (HIV protease [4]; HIV protease): 1.8 nM/min
Km (HIV protease [4]; read-out: Michaelis-Menten kinetics constant (Km); HIV protease): 5.9 µM

CC[C@H](C)[C@H](NC(=O)[C@@H]1CCCN1C(=O)[C@H](Cc1ccccc1)NC(=O)[C@H](CC(N)=O)NC(=O)[C@H](CC(C)C)NC(=O)[C@@H](NC(=O)[C@H](C)NC(=O)CCCNC(=O)c1ccc(/N=N/c2ccc(N(C)C)cc2)cc1)[C@@H](C)O)C(=O)N[C@@H](CO)C(=O)N[C@@H](CCC(N)=O)C(=O)N[C@@H](CCC(=O)O)C(=O)NCCNc1cccc2c(S(=O)(=O)O)cccc12 [Substrate VI] ({X1-GABA}-ATLNFPISQE-{EDANS})
cleavage by HIV protease (in words) (HIV protease [4]): not as efficiently as was Substrate I

CC[C@H](C)[C@H](NC(=O)CCCNC(=O)c1ccc(/N=N/c2ccc(N(C)C)cc2)cc1)C(=O)N[C@@H](CCCNC(=N)N)C(=O)N[C@@H](CCC(N)=O)C(=O)N[C@@H](C)C(=O)N[C@@H](CC(N)=O)C(=O)N[C@@H](Cc1ccccc1)C(=O)N[C@@H](CC(C)C)C(=O)NCC(=O)N[C@@H](CC(C)C)C(=O)NCCNc1cccc2c(S(=O)(=O)O)cccc12 [Substrate V] ({X1-GABA}-IRQANFLGL-{EDANS})
cleavage by HIV protease (in words) (HIV protease [4]): not as efficiently as was Substrate I

CC(C)CC(=O)N[C@H](C(=O)N[C@H](C(=O)N[C@@H](CC(C)C)[C@@H](O)CC(=O)N[C@@H](C)C(=O)N[C@@H](CC(C)C)[C@@H](O)CC(=O)O)C(C)C)C(C)C [pepstatin] (Isovaleryl-VV[Sta]A[Sta]-OH)
IC50 (AMV protease [6]): ~40 µM
mode of inhibition of the protease (HIV protease [7]): purely competitive
